What was measured:
DNA-PK = target: T1, DNA-PK (Homo sapiens, UniProt P78527); assay: DNA-PK Assay for Biochemical Enzymatic Inhibition (ADP Glo Kinase assay)
T1 construct: purchased Invitrogen PR9107A
Procedure: A biochemical assay was performed to identify IC50 values against DNA-PK activity in a two-step reaction with a kinase reaction followed by ADP Glo™ Kinase assay Kit (Promega V9102).
Three-fold serial dilutions of compounds in DMSO were prepared in kinase assay buffer (50 mM HEPES pH 7.5, 20 mM MgCl2, 100 mM KCl, 50 μM DTT, 10 μg/ml calf thymus DNA, 0.01% Tween 20). Kinase assay buffer was used to prepare compound treatments to 0.02% DMSO (dimethyl sulphoxide) content. DMSO controls were prepared to produce a maximum and minimum luminescence signal for normalization. Substrate (Anaspec, AS-60210-5) and ATP (Promega V9102) and ATP mix was prepared by dilution in kinase assay buffer for 434.4 μM and 64.4 μM final assay concentrations, respectively. Compounds and control were added to 25 ng DNA-PK enzyme (Invitrogen, PR9107A) diluted in kinase buffer in assay plate (Corning 267459) and incubated for 15 minutes at room temperature prior to addition of substrate and ATP mix.
Throughout the assay, each time a reagent was added to the microplate, it was centrifuged for 1 minute at 1300 rcf. All reagents were added, and incubations carried out at room temperature. The reaction was then incubated for 60 minutes. ADP-ATP standards at 0, 4, 10, 40, 80, and 100% ADP (prepared as specified in the ADP Glo™ Kinase assay kit) were also added to the microplate at a volume equal to the total kinase reaction. The ADP Glo™ Kinase Assay kit was then used to quantify DNA-PK activity: following the 60-minute incubation, a 1:1 volume of ADP Glo reagent was added to all wells, then following a further 45-minute incubation, a 1:1 volume of Kinase Detection Reagent was added to all wells. After this two-step assay, plates were incubated in a Synergy-Neo2 plate reader for 30 minutes with gentle shaking, followed by endpoint luminescent read Luminescence data was normalized by subtracting the background signal and expressing all background-adjusted values as a percentage of the average maximum signal. The data was then expressed as percent inhibition by subtracting from 100% (i.e. maximum luminescent signal will be 0% inhibition) and the resulting data plotted against ten concentration points on a logarithmic scale, using GraphPad Prism. Non-linear regression analysis was performed on each concentration response curve and the log [inhibitor] vs response—variable slope (four parameters) equation was selected to generate IC50 values.

[1] = target: T2, DNA-PK phosphorylation at Serine 2056 (Homo sapiens, UniProt P78527); assay: Cellular Assay for Inhibition of DNA-PK Phosphorylation at Serine 2056 (FaDu cells, neocarzinostatin, sandwich ELISA); format: cell-based
T2 construct: host or cells: FaDu
Procedure: FaDu cells were purchased from ATCC and maintained in MEM alpha medium (Life Technologies, cat. no. 12561) supplemented with 10% fetal bovine serum, and 1% GlutaMAX at 37° C. supplemented with 5% CO2. 50,000 cells were seeded to each well of a 96-well cell culture plate in 50 μL of culture medium and incubated for 16-24 hours. Three-fold serially diluted compounds were prepared in DMSO. Culture media was used to prepare compound treatments to 0.3% DMSO (dimethyl sulphoxide) content. Compound treatments were added to the cells for 1 hour prior incubation, followed by the addition of neocarzinostatin in fresh culture medium to 1 μg/mL final concentration for an additional 2 hours incubation to induce DNA DSBs (double-strand breaks). DMSO controls were incubated with fresh culture medium alone for the additional two hours incubation. The cells were then lysed and frozen at −20° C. Cell lysates were thawed on wet ice and protein concentrations quantified by BCA Protein Assay (Thermo # 23225). Lysis buffer was used to normalize lysates by protein content and all lysates were then investigated by sandwich ELISA by means of DNA-PK-specific antibodies (Abcam ab44815: total DNA-PK; ab124918: phosphoserine-2056 DNA-PK) in sandwich ELISA format on the MSD S600MM platform (MesoScale Discovery). % inhibition was calculated for all data points: =1−(DATA_PT−AVERAGE(DMSO controls))/(AVERAGE(NCS controls)−AVERAGE(DMSO controls)). Logarithm of the molar concentration of compound was plotted against percent inhibition to calculate IC50 values, with curve fit settings for data fit to log(inhibitor) vs. normalized response—Variable slope using curve fit software (GraphPad Prism).

| Compound | IC50 (DNA-PK; Table 1) | also measured |
| --- | --- | --- |
| Cn1cc([C@H]2CC[C@H](Oc3nc(N4CCOCC4)cc4ncc(Br)cc34)CC2)cn1 [Compound 3b, 4-(3-bromo-5-(((1r,4r)-4-(1-methyl-1H-pyrazol-4-yl)cyclohexyl)oxy)-1,6-naphthyridin-7-yl)morpholine] | 10 to 150 nM | – |
| Cn1cc([C@H]2CC[C@@H](Oc3nc(N4CCOCC4)cc4ncc(O)cc34)CC2)cn1 [Compound 4b, 5-(((1r,4r)-4-(1-methyl-1H-pyrazol-4-yl)cyclohexyl)oxy)-7-morpholino-1,6-naphthyridin-3-ol] | 10 to 150 nM | – |
| FC(F)(F)c1ccn([C@H]2CC[C@@H](Oc3nc(N4CCOCC4)cc4ncccc34)CC2)n1 [Compound 17c, 4-(5-(((1s,4s)-4-(3-(trifluoromethyl)-1H-pyrazol-1-yl)cyclohexyl)oxy)-1,6-naphthyridin-7-yl)morpholine] | 10 to 150 nM | – |
| FC(F)(F)c1ccnn1[C@H]1CC[C@@H](Oc2nc(N3CCOCC3)cc3ncccc23)CC1 [Compound 17d, 4-(5-(((1s,4s)-4-(5-(trifluoromethyl)-1H-pyrazol-1-yl)cyclohexyl)oxy)-1,6-naphthyridin-7-yl)morpholine] | 1 to 10 nM | IC50 ([1]; Table 1): 100 to 1000 nM |
| COc1cnc(N[C@H]2CC[C@@H](Oc3nc(N4CCOCC4)cc4ncc(Br)cc34)CC2)nc1 [Compound 18c, N-((1s,4s)-4-((3-Bromo-7-morpholino-1,6-naphthyridin-5-yl)oxy)cyclohexyl)-5-methoxypyrimidin-2-amine] | 10 to 150 nM | – |
| Cc1nccc(N[C@H]2CC[C@@H](Oc3nc(N4CCOCC4)cc4ncccc34)CC2)n1 [Compound 37, 2-methyl-N-((1s,4s)-4-((7-morpholino-1,6-naphthyridin-5-yl)oxy)cyclohexyl)pyrimidin-4-amine] | < 0.5 nM | IC50 ([1]; Table 1): 100 to 1000 nM |
| CCOC(=O)N[C@H]1CC[C@@H](Oc2nc(N3CCOCC3)cc3ncccc23)CC1 [Compound 104, Ethyl ((1s,4s)-4-((7-morpholino-1,6-naphthyridin-5-yl)oxy)cyclohexyl)carbamate] | 10 to 150 nM | – |
| O=C(N[C@H]1CC[C@@H](Oc2nc(N3CCOCC3)cc3ncccc23)CC1)c1cncnc1C(F)(F)F [Compound 130, N-((1s,4s)-4-((7-morpholino-1,6-naphthyridin-5-yl)oxy)cyclohexyl)-4-(trifluoromethyl)pyrimidine-5-carboxamide] | 10 to 150 nM | – |
| O=S(=O)(N[C@H]1CC[C@@H](Oc2nc(N3CCOCC3)cc3ncccc23)CC1)c1ccccc1 [Compound 147, N-((1s,4s)-4-((7-Morpholino-1,6-naphthyridin-5-yl)oxy)cyclohexyl)benzenesulfonamide] | 10 to 150 nM | – |
| O=S(=O)(N[C@H]1CC[C@@H](Oc2nc(N3CCOCC3)cc3ncccc23)CC1)c1ccc(F)cc1 [Compound 148, 4-Fluoro-N-((1s,4s)-4-((7-morpholino-1,6-naphthyridin-5-yl)oxy)cyclohexyl)benzenesulfonamide] | 10 to 150 nM | – |
| COc1ccc(S(=O)(=O)N[C@H]2CC[C@@H](Oc3nc(N4CCOCC4)cc4ncccc34)CC2)cc1 [Compound 149, 4-Methoxy-N-((1s,4s)-4-((7-morpholino-1,6-naphthyridin-5-yl)oxy)cyclohexyl)benzenesulfonamide] | 10 to 150 nM | – |
| O=C([C@H]1CC[C@@H](Oc2nc(N3CCOCC3)cc3ncccc23)CC1)N1CCOCC1 [Compound 154a, morpholino((1S,4S)-4-((7-morpholino-1,6-naphthyridin-5-yl)oxy)cyclohexyl)methanone] | 10 to 150 nM | – |
| CN1CCN(C(=O)[C@H]2CC[C@@H](Oc3nc(N4CCOCC4)cc4ncccc34)CC2)CC1 [Compound 154d, (4-methylpiperazin-1-yl)((1S,4S)-4-((7-morpholino-1,6-naphthyridin-5-yl)oxy)cyclohexyl)methanone] | 10 to 150 nM | – |
| c1ccc(CN[C@H]2CC[C@@H](Oc3nc(N4CCOCC4)cc4ncccc34)CC2)cc1 [Compound 155, (1s,4s)-N-benzyl-4-((7-morpholino-1,6-naphthyridin-5-yl)oxy)cyclohexan-1-amine] | 10 to 150 nM | IC50 ([1]; Table 1): 10000 to 30000 nM |
| CC(=O)Nc1cnc2cc(N3CCOCC3)nc(O[C@H]3CC[C@@H](n4ccnc4)CC3)c2c1 [Compound 162, N-(5-(((1s,4s)-4-(1H-imidazol-1-yl)cyclohexyl)oxy)-7-morpholino-1,6-naphthyridin-3-yl)acetamide] | 10 to 150 nM | – |
| CN(c1cnc2cc(N3CCOCC3)nc(O[C@H]3CC[C@@H](N(C)c4ncccn4)CC3)c2c1)S(C)(=O)=O [Compound 199, N-methyl-N-(5-(((1s,4s)-4-(methyl(pyrimidin-2-yl)amino)cyclohexyl)oxy)-7-morpholino-1,6-naphthyridin-3-yl)methanesulfonamide] | 10 to 150 nM | – |
| CS(=O)(=O)Nc1cnc2cc(N3CCOCC3)nc(O[C@H]3CC[C@@H](Nc4ncc(C(N)=O)cn4)CC3)c2c1 [LFA028, 2-[[4-[[3-(Methanesulfonamido)-7-morpholino-1,6-naphthyridin-5-yl]oxy]cyclohexyl]amino]pyrimidine-5-carboxamide] | – | IC50 (DNA-PK; Table 2): 0.5 to 1 nM; IC50 ([1]; Table 2): 1000 to 10000 nM |
| CNC(=O)c1cnc(N[C@H]2CC[C@@H](Oc3nc(N4CCOCC4)cc4ncc(NS(C)(=O)=O)cc34)CC2)nc1 [LFA029, 2-[[4-[[3-(Methanesulfonamido)-7-morpholino-1,6-naphthyridin-5-yl]oxy]cyclohexyl]amino]-N-methyl-pyrimidine-5-carboxamide] | – | IC50 (DNA-PK; Table 2): < 0.5 nM; IC50 ([1]; Table 2): 100 to 1000 nM |
| CN(C)C(=O)c1cnc(N[C@H]2CC[C@@H](Oc3nc(N4CCOCC4)cc4ncc(NS(C)(=O)=O)cc34)CC2)nc1 [LFA030, 2-[[4-[[3-(Methanesulfonamido)-7-morpholino-1,6-naphthyridin-5-yl]oxy]cyclohexyl]amino]-N,N-dimethyl-pyrimidine-5-carboxamide] | – | IC50 (DNA-PK; Table 2): < 0.5 nM; IC50 ([1]; Table 2): 100 to 1000 nM |
| Nc1cnc2cc(N3CCOCC3)nc(O[C@H]3CC[C@@H](Nc4ncccn4)CC3)c2c1 [LFA107, 7-morpholino-5-[4-(pyrimidin-2-ylamino)cyclohexoxy]-1,6-naphthyridin-3-amine] | – | IC50 (DNA-PK; Table 2): < 0.5 nM; IC50 ([1]; Table 2): < 100 nM |
| Oc1cnc2cc(N3CCOCC3)nc(O[C@H]3CC[C@@H](c4cnccn4)CC3)c2c1 [LFA1065, 7-morpholino-5-(4-pyrazin-2-ylcyclohexoxy)-1,6-naphthyridin-3-ol] | – | IC50 ([1]; Table 3): < 100 nM |
| N-[5-[4-[(4,6-dimethylpyrimidin-2-yl)amino]cyclohexoxy]-7-morpholino-1,6-naphthyridin-3-yl]methanesulfonamide;2,2,2-trifluoroacetic acid [LFA1046] | – | IC50 ([1]; Table 3): 100 to 1000 nM |

Source: US20240246960A1 (adMare Therapeutics Society, priority 2021, published 2024)
